Test results taken from patent US20030158118A1, “Combination of cimetidine and cysteine derivatives for treating cancer” (priority 2001, published 2003).

Test system: CT26 colorectal cancer cells
Test: Tumor growth in BALB/c mice grafted with syngenic CT26 colorectal cancer cells
Assay type: in vivo
Conditions: day 33; drinking water: compound 20 1.5 mg/ml (150 mg/kg daily), cimetidine or N-acetyl cysteine 0.75 mg/ml (75 mg/kg daily); vs vehicle
Experimental: The effect of a complex of the invention and the effect of the components of the complex is tested on tumor growth in BALB/c mice grafted with syngenic CT26 colorectal cancer cells. The aim of the study is to compare the effect on tumor growth of the complex of the invention versus the effect of the two components of the complex individually. […] Compound 20, cimetidine and […] dissolved in drinking water. […] The solutions are available ad libitum in the entire study period. […] The doses of cimetidine and N-acetylcysteine are selected to correspond to the doses of each individual compound obtained by administration of […] of compound 20. In these studies, female BALB/c mice with an age of 6 weeks are used. Ten mice are included per group. The mice are caged in standard cages at a temperature of 21° C.-23° C. controlled via the ambient ventilation system in the laboratory. Light cycle is 12-hour dark and 12-hour light (lights on 06.00). Diet is Altromin 1314 special formulation, Produced by Altromin Denmark, Chr. Pedersen A/S, 4100 Ringsted, Denmark. Water is acidified with citric acid. Diet and water is administered ad libitum. The mice are randomised to test groups of ten mice. After one week of acclimatisation each mouse is injected subcutaneously with appr. […] Tumor diameters are measured in two dimensions using a digital slide gauge.

| Compound | tumor growth inhibited |
| --- | --- |
| CN/C(=N/CCSCc1nc[nH]c1C)NC#N [cimetidine] | 8% |
| CC(=O)N[C@@H](CS)C(=O)O [N-acetyl cysteine] | 19% |
